Source: PubChem BioAssay (NCI)
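Tested at 5 concentrations; 48 h exposure; 96-well plates; endpoints linearly interpolated, else capped at highest concentration. Definition used: TGI = concentration required for complete inhibition of growth.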

What was measured:
Assay in all cases: DTP human tumour cell line panel, 48 h
MCF7 breast = tested on: MCF7 breast
NCI-H460 lung = tested on: NCI-H460 lung
NCI/ADR-RES ovarian = tested on: NCI/ADR-RES ovarian
RXF 393 renal = tested on: RXF 393 renal
TK-10 renal = tested on: TK-10 renal
MDA-MB-231 breast = tested on: MDA-MB-231 breast

CC(C(=O)COCc1ccccc1)P1(=O)OC(C)(C)CN1C(C)(C)C (stereo not given)
TGI (MCF7 breast): > 100 µM
TGI (NCI-H460 lung): > 100 µM
TGI (NCI/ADR-RES ovarian): > 100 µM
TGI (RXF 393 renal): > 100 µM
TGI (TK-10 renal): > 100 µM

C=C(C)[C@H]1C2=CC(C(=O)OC)=C(C[C@H](C(=C)C)[C@@H](O)[C@@H](O)C3=C[C@H]1OC3=O)O2
TGI (MCF7 breast): > 100 µM
TGI (MDA-MB-231 breast): > 100 µM
TGI (NCI/ADR-RES ovarian): > 100 µM
TGI (RXF 393 renal): > 100 µM
TGI (TK-10 renal): > 100 µM

Cc1nc2ccccc2c(-n2cccn2)c1CCn1cccn1
TGI (MCF7 breast): > 100 µM
TGI (MDA-MB-231 breast): > 100 µM
TGI (NCI-H460 lung): > 100 µM
TGI (NCI/ADR-RES ovarian): > 100 µM
TGI (RXF 393 renal): > 100 µM
TGI (TK-10 renal): > 100 µM

CC1=C(C#N)c2nc3ccccc3n2C(=O)C1(C)CCO (stereo not given)
TGI (MCF7 breast): > 100 µM
TGI (MDA-MB-231 breast): > 100 µM
TGI (NCI-H460 lung): > 100 µM
TGI (NCI/ADR-RES ovarian): > 100 µM
TGI (RXF 393 renal): > 100 µM
TGI (TK-10 renal): > 100 µM

CC12c3c4ccc(C=O)c3Oc3ccc(C=O)c(c31)Oc1ccc(C=O)c(c12)O4
TGI (MCF7 breast): > 25 µM
TGI (MDA-MB-231 breast): > 25 µM
TGI (NCI-H460 lung): > 25 µM
TGI (NCI/ADR-RES ovarian): > 25 µM
TGI (RXF 393 renal): > 25 µM

O=C(c1ccccc1)c1ccc2c(c1)NC(=O)c1ccccc1SSc1ccccc1C(=O)N2
TGI (MDA-MB-231 breast): > 100 µM
TGI (NCI-H460 lung): > 100 µM
TGI (NCI/ADR-RES ovarian): > 100 µM
TGI (RXF 393 renal): > 100 µM
TGI (TK-10 renal): > 100 µM

O=c1onc2n1-c1cc(Cl)ccc1C(=S)N1CSCC21 (stereo not given)
TGI (MCF7 breast): > 100 µM
TGI (MDA-MB-231 breast): > 100 µM
TGI (NCI-H460 lung): > 100 µM
TGI (NCI/ADR-RES ovarian): > 100 µM
TGI (RXF 393 renal): > 100 µM
TGI (TK-10 renal): > 100 µM

OCCCc1ccc2c(c1)[C@H](CO)[C@@H](c1ccc(O)cc1)O2
TGI (MCF7 breast): > 100 µM
TGI (MDA-MB-231 breast): > 100 µM
TGI (NCI-H460 lung): > 100 µM
TGI (NCI/ADR-RES ovarian): > 100 µM
TGI (RXF 393 renal): > 100 µM
TGI (TK-10 renal): > 100 µM

CC(C)C1=CC23CCC4C(C)(C(=O)O)CCCC4(C)C2CC1C1C(=O)N(CCCCCCN2C(=O)C4C5CC6C7(C)CCCC(C)(C(=O)O)C7CCC6(C=C5C(C)C)C4C2=O)C(=O)C13 (stereo not given)
TGI (MCF7 breast): 21.7 µM
TGI (MDA-MB-231 breast): 36.8 µM
TGI (RXF 393 renal): 28.3 µM
TGI (TK-10 renal): 31 µM

CSc1csc(-c2ccc(-c3ccc(-c4cc(SC)cs4)s3)s2)c1
TGI (MCF7 breast): > 100 µM
TGI (MDA-MB-231 breast): > 100 µM
TGI (NCI-H460 lung): > 100 µM
TGI (NCI/ADR-RES ovarian): > 100 µM
TGI (TK-10 renal): > 100 µM

N#Cc1sc2c(c1OC(=O)c1ccc(C(F)(F)F)cc1)c(=O)n(-c1ccccc1)c(=S)n2-c1ccccc1
TGI (MCF7 breast): > 100 µM
TGI (MDA-MB-231 breast): > 100 µM
TGI (NCI-H460 lung): > 100 µM
TGI (NCI/ADR-RES ovarian): > 100 µM
TGI (RXF 393 renal): 61.7 µM
TGI (TK-10 renal): > 100 µM

Cc1cc(N(C)C)c2ccccc2[n+]1CCCCCCCCCC[n+]1c(C)cc(N(C)C)c2ccccc21
TGI (MCF7 breast): 26.3 µM
TGI (MDA-MB-231 breast): 6.15 µM
TGI (NCI-H460 lung): 13 µM
TGI (NCI/ADR-RES ovarian): 43.9 µM
TGI (RXF 393 renal): 35 µM
TGI (TK-10 renal): 18 µM

Clc1sc(Cl)c2c1[C@@H](Cl)C[C@@H]2Br
TGI (MCF7 breast): > 100 µM
TGI (MDA-MB-231 breast): > 100 µM
TGI (NCI-H460 lung): > 100 µM
TGI (RXF 393 renal): > 100 µM
TGI (TK-10 renal): > 100 µM

O=C(CN1C(=O)CC(c2ccccc2)(c2ccccc2)C1=O)N1CCN(CCO)CC1
TGI (MCF7 breast): > 100 µM
TGI (MDA-MB-231 breast): > 100 µM
TGI (NCI/ADR-RES ovarian): > 100 µM
TGI (RXF 393 renal): > 100 µM
TGI (TK-10 renal): > 100 µM

CC1OC(O[C@H]2C3C=CO[C@@H](OC4OC(CO)C(O)C(O)C4O)C3[C@@]3(COC(=O)/C=C/c4ccccc4)O[C@@H]23)C(O)C(O)C1O (stereo not given in full)
TGI (MCF7 breast): > 100 µM
TGI (MDA-MB-231 breast): > 100 µM
TGI (NCI-H460 lung): > 100 µM
TGI (NCI/ADR-RES ovarian): > 100 µM
TGI (RXF 393 renal): > 100 µM
TGI (TK-10 renal): > 100 µM

C=CCn1c(=O)ccn(/C(=C/C(=O)OCC)C(=O)OCC)c1=O
TGI (MCF7 breast): 17.1 µM
TGI (MDA-MB-231 breast): 26 µM
TGI (NCI-H460 lung): 34 µM
TGI (NCI/ADR-RES ovarian): 50.8 µM
TGI (RXF 393 renal): 28.5 µM
TGI (TK-10 renal): 24.1 µM

COc1ccc(-c2nc3ccccc3c(=S)n2OC(C)=O)cc1
TGI (MCF7 breast): > 25 µM
TGI (MDA-MB-231 breast): > 25 µM
TGI (NCI-H460 lung): > 25 µM
TGI (NCI/ADR-RES ovarian): > 25 µM
TGI (RXF 393 renal): > 25 µM
TGI (TK-10 renal): > 25 µM

COc1cc(C=O)ccc1O
TGI (MCF7 breast): > 100 µM
TGI (MDA-MB-231 breast): > 100 µM
TGI (NCI-H460 lung): > 100 µM
TGI (NCI/ADR-RES ovarian): > 100 µM
TGI (TK-10 renal): > 100 µM

Cc1cc(C)nc(NC(=S)Nc2ccc([N+](=O)[O-])cc2)c1
TGI (MCF7 breast): > 100 µM
TGI (MDA-MB-231 breast): > 100 µM
TGI (NCI-H460 lung): > 100 µM
TGI (NCI/ADR-RES ovarian): > 100 µM
TGI (RXF 393 renal): > 100 µM
TGI (TK-10 renal): > 100 µM

COc1cc(Nc2ccc3c(c2)CCC3)nc(OC)n1
TGI (MCF7 breast): > 100 µM
TGI (MDA-MB-231 breast): > 100 µM
TGI (NCI-H460 lung): > 100 µM
TGI (NCI/ADR-RES ovarian): 65.5 µM
TGI (TK-10 renal): > 100 µM

COC(=O)c1ccccc1CC1Cc2cccc(C)c2C1=O (stereo not given)
TGI (MCF7 breast): 56.1 µM
TGI (MDA-MB-231 breast): > 100 µM
TGI (NCI-H460 lung): > 100 µM
TGI (NCI/ADR-RES ovarian): > 100 µM
TGI (RXF 393 renal): 63.7 µM
TGI (TK-10 renal): 71.1 µM

CN(C)Cc1cc(C(=O)/C=C/c2ccc([N+](=O)[O-])cc2)cc(CN(C)C)c1O
TGI (MCF7 breast): 34.9 µM
TGI (MDA-MB-231 breast): 28.5 µM
TGI (NCI/ADR-RES ovarian): 87 µM
TGI (RXF 393 renal): 38.1 µM
TGI (TK-10 renal): 45.7 µM

CCOC(=O)/C(C(C)=O)=C(\OC(C)=O)c1ccncc1C(=O)O
TGI (MCF7 breast): > 100 µM
TGI (MDA-MB-231 breast): > 100 µM
TGI (NCI-H460 lung): > 100 µM
TGI (NCI/ADR-RES ovarian): > 100 µM
TGI (RXF 393 renal): > 100 µM

O=c1c2c(no[n+]2[O-])c2ccccc2n1-c1ccccc1
TGI (MCF7 breast): 15.6 µM
TGI (MDA-MB-231 breast): 24.8 µM
TGI (NCI-H460 lung): 21.4 µM
TGI (NCI/ADR-RES ovarian): 21.6 µM
TGI (RXF 393 renal): 14.7 µM
TGI (TK-10 renal): 27.2 µM

O=C(OCC(Cl)(Cl)Cl)N1CC[C@H](C2CCCCC2)C1
TGI (MCF7 breast): 34.9 µM
TGI (MDA-MB-231 breast): 96.2 µM
TGI (NCI-H460 lung): 35.1 µM
TGI (NCI/ADR-RES ovarian): 28.5 µM
TGI (RXF 393 renal): 36.8 µM
TGI (TK-10 renal): 37.9 µM

CNc1[nH]c(=S)nc2sc3c(c12)CCCC3
TGI (MCF7 breast): > 75 µM
TGI (MDA-MB-231 breast): > 75 µM
TGI (NCI/ADR-RES ovarian): > 75 µM
TGI (RXF 393 renal): > 75 µM
TGI (TK-10 renal): > 75 µM

Cc1ccsc1/C=N/Nc1cnccn1
TGI (MCF7 breast): > 100 µM
TGI (MDA-MB-231 breast): > 100 µM
TGI (NCI/ADR-RES ovarian): > 100 µM
TGI (RXF 393 renal): > 100 µM
TGI (TK-10 renal): > 100 µM

Cc1cc(OP2(=O)NCc3ncccc3O2)ccc1Cl (stereo not given)
TGI (MCF7 breast): > 100 µM
TGI (MDA-MB-231 breast): > 100 µM
TGI (NCI-H460 lung): > 100 µM
TGI (NCI/ADR-RES ovarian): > 100 µM
TGI (RXF 393 renal): > 100 µM

CCN(CC)c1ccc(/C=C/c2ccnc3ccccc23)cc1
TGI (MCF7 breast): > 100 µM
TGI (MDA-MB-231 breast): > 100 µM
TGI (NCI-H460 lung): > 100 µM
TGI (NCI/ADR-RES ovarian): > 100 µM
TGI (RXF 393 renal): > 100 µM
TGI (TK-10 renal): > 100 µM

O=C1CSC2(CC(/C=C/c3cccs3)=NN2c2cccc(S(=O)(=O)O)c2)N1c1nc2ccccc2s1 (stereo not given)
TGI (MCF7 breast): > 100 µM
TGI (MDA-MB-231 breast): > 100 µM
TGI (NCI-H460 lung): > 100 µM
TGI (NCI/ADR-RES ovarian): > 100 µM
TGI (RXF 393 renal): > 100 µM
TGI (TK-10 renal): > 100 µM

O=C(O)C(O)C(O)C(O)C(O)CO (stereo not given)
TGI (MCF7 breast): > 100 µM
TGI (MDA-MB-231 breast): > 100 µM
TGI (NCI-H460 lung): > 100 µM
TGI (NCI/ADR-RES ovarian): > 100 µM
TGI (RXF 393 renal): > 100 µM
TGI (TK-10 renal): > 100 µM
